ChEMBL document CHEMBL1201862, “PubChem BioAssay data set” (2004)
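Growth conditions: 96-well plates. Treatment: test compound, 48 hours, 5 concentrations. Analysis: linear interpolation between bracketing concentrations; unreached endpoints set to highest concentration. Here, GI50 denotes the concentration required for 50% inhibition of growth.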 Calls of active or inactive are those of the source. No stated cut-off is given here; in the data, active = GI50 up to about 1.1 µM and inactive = higher.

How the values were obtained:
Experiment in all cases: DTP human tumour cell line panel, 48 h
786-0 = test system: 786-0
A549 = test system: A549
OVCAR-4 = test system: OVCAR-4
SW-620 = test system: SW-620
U-251 = test system: U-251
OVCAR-8 = test system: OVCAR-8
COLO 205 = test system: COLO 205
SK-OV-3 = test system: SK-OV-3
SF-295 = test system: SF-295
A498 = test system: A498
UACC-257 = test system: UACC-257
SK-MEL-2 = test system: SK-MEL-2
DLD-1 = test system: DLD-1
K562 = test system: K562
OVCAR-3 = test system: OVCAR-3
MDA-MB-435 = test system: MDA-MB-435
MDA-MB-231 = test system: MDA-MB-231
Hs-578T = test system: Hs-578T
BT-549 = test system: BT-549
DU-145 = test system: DU-145

Measured: GI50

[Zn+2][N+]12CCN3CCN4CCN(CC1)[PH]432 (stereo not given)
inactive: 786-0 > 100 µM | A549 > 100 µM | OVCAR-4 > 100 µM | SW-620 > 100 µM | U-251 > 100 µM | OVCAR-8 > 100 µM | COLO 205 > 100 µM | SK-OV-3 > 100 µM | SF-295 > 100 µM | A498 > 100 µM | UACC-257 > 100 µM | SK-MEL-2 > 100 µM | DLD-1 > 100 µM | K562 > 100 µM | OVCAR-3 > 100 µM

O=C(O)CNCc1c2ccccc2nc2ccccc12
inactive: 786-0 36 µM | A549 43.4 µM | MDA-MB-435 36.6 µM | MDA-MB-231 43 µM | Hs-578T 20.4 µM | OVCAR-4 31.7 µM | SW-620 26.4 µM | U-251 60 µM | BT-549 33.4 µM | OVCAR-8 32.9 µM | DU-145 > 100 µM | COLO 205 41 µM | SK-OV-3 > 76.4 µM | SF-295 48.4 µM | A498 66.1 µM | UACC-257 34.1 µM | SK-MEL-2 50.8 µM | DLD-1 33.3 µM | K562 8.85 µM | OVCAR-3 38.6 µM

C[C@]12CCC[C@H](OC=O)C1(O)C[C@H](C(=O)O)CC2 (stereo not given in full)
inactive: 786-0 > 100 µM | A549 > 100 µM | OVCAR-4 > 100 µM | SW-620 > 100 µM | U-251 > 100 µM | OVCAR-8 > 100 µM | COLO 205 > 100 µM | SK-OV-3 > 100 µM | SF-295 > 100 µM | A498 > 100 µM | UACC-257 > 100 µM | SK-MEL-2 > 100 µM | DLD-1 > 100 µM | K562 > 100 µM | OVCAR-3 > 100 µM
